Experimental findings from patent publication US20090285774A1, “Hepatitis C Virus Inhibitors” (Bristol-Myers Squibb Company, priority 2008, published 2009) are described below.

Where two headings read alike, the source gives them in different places.

For experiment [1], the target named is T1, human neutrophil elastase (HNE) (Homo sapiens, UniProt P08246).
T1 sequence (P08246 30-267): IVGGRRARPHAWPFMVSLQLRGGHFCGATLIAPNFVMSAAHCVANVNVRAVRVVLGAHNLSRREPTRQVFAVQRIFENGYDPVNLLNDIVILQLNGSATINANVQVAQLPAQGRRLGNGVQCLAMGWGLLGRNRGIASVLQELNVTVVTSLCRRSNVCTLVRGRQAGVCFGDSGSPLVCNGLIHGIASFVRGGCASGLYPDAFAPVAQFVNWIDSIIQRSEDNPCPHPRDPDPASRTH
Put plainly: Specificity assay, human neutrophil elastase. It counts as biochemical. The conditions noted are these: read-out: HLE activity in the specificity assays (IC50). The procedure:
(§1) The specificities of compounds of the present disclosure were determined against a variety of serine proteases: human neutrophil elastase (HNE), porcine pancreatic elastase (PPE) and human pancreatic chymotrypsin and one cysteine protease: human liver cathepsin B. In all cases a 96-well plate format protocol using a fluorometric Amino-Methyl-Coumarin (AMC) substrate specific for each enzyme was used as described previously (PCT Patent Application No. WO 00/09543) with some modifications to the serine protease assays. All enzymes were purchased from Sigma, EMDbiosciences while the substrates were from Bachem, Sigma and EMDbiosciences.
(§2) Compound concentrations varied from 100 to 0.4 μM depending on their potency. The enzyme assays were each initiated by addition of substrate to enzyme-inhibitor pre-incubated for 10 min at room temperature and hydrolysis to 15% conversion as measured on cytofluor. […]
(§3) The percentage of inhibition was calculated using the formula: […]

For experiment [2], the target named is porcine pancreatic elastase (PPE) (Sus scrofa, UniProt P00772). Description: Specificity assay, porcine pancreatic elastase. It counts as biochemical. Conditions: read-out: PPE activity in the specificity assays (IC50). The procedure: as §1, §2, §3
The next experiment has as its target T2, human liver cathepsin B (Homo sapiens, UniProt P07858).
T2 construct: host or cells: human liver (from the name)
Put plainly: Specificity assay, cathepsin B. It is filed as biochemical. Conditions: read-out: Cathepsin B activity in the specificity assays (IC50). The procedure: as §1, §2, §3

Experiment [3] has as its system HCV replicon (strain 1b) in HUH-7 cells. Put plainly: HCV replicon FRET assay. It is filed as cell-based. The conditions noted are these: Hepatitis C virus. The source says:
An HCV replicon whole cell system was established as described by Lohmann V, Korner F, Koch J, Herian U, Theilmann L, Bartenschlager R., Science 285(5424):110-3 (1999). This system enabled us to evaluate the effects of our HCV Protease compounds on HCV RNA replication. Briefly, using the HCV strain 1b sequence described in the Lohmann paper (Assession number: AJ238799), an HCV cDNA was synthesized by Operon Technologies, Inc. (Alameda, Calif.), and the full-length replicon was then assembled in plasmid pGem9zf(+) (Promega, Madison, Wis.) using standard molecular biology techniques. The replicon consists of (i) the HCV 5′ UTR fused to the first 12 amino acids of the capsid protein, (ii) the neomycin phosphotransferase gene (neo), (iii) the IRES from encephalomyocarditis virus (EMCV), and (iv) HCV NS3 to NS5B genes and the HCV 3′ UTR. Plasmid DNAs were linearized with ScaI and RNA transcripts were synthesized in vitro using the T7 MegaScript transcription kit (Aibion, Austin, Tex.) according to manufacturer's directions. In vitro transcripts of the cDNA were transfected into the human hepatoma cell line, HUH-7. […] Resulting cell lines were characterized for positive and negative strand RNA production and protein production over time.
The HCV replicon FRET assay was developed to monitor the inhibitory effects of compounds described in the disclosure on NCV viral replication. HUH-7 cells, constitutively expressing the HCV replicon, were grown in Dulbecco's Modified Eagle Media (DMEM) (Gibco-BRL) containing 10% Fetal calf serum (FCS) (Sigma) and 1 mg/ml G418 (Gibco-BRL). Cells were seeded the night before (1.5×10^4 cells/well) in 96-well tissue-culture sterile plates. Compound and no compound controls were prepared in DMEM containing 4% FCS, 1:100 Penicillin/Streptomysin (Gibco-BRL), 1:100 L-glutamine and 5% DMSO in the dilution plate (0.5% DMSO final concentration in the assay). Compound/DMSO mixes were added to the cells and incubated for 4 days at 37° C. After 4 days, cells were first assessed for cytotoxicity using alamar Blue (Trek Diagnotstic Systems) for a CC50 reading. The toxicity of compound (CC50) was determined by adding 1/10th volume of alamar Blue to the media incubating the cells. After 4 h, the fluorescence signal from each well was read, with an excitation wavelength at 530 nm and an emission wavelength of 580 nm, using the Cytofluor Series 4000 (Perspective Biosystems). Plates were then rinsed thoroughly with Phosphate-Buffered Saline (PBS) (3 times 150 μl).
In general terms: A replicon is a self-replicating genome or part of one, used to study replication in cells.

The test system of experiment [4] is human pancreatic chymotrypsin. Put plainly: Specificity assay, chymotrypsin. It is filed as biochemical. The conditions noted are these: read-out: Chymotrypsin activity in the specificity assays (IC50). The procedure: as §1, §2, §3

Chain of porcine pancreatic elastase (PPE) (P00772 27-266): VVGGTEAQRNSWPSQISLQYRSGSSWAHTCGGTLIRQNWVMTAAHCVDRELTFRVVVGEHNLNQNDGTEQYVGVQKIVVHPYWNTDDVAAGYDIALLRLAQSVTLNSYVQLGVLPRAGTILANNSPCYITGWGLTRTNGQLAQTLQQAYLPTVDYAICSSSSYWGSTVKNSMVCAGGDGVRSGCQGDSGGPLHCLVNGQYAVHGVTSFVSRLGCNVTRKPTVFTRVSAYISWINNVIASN

As to `C=C[C@@H]1C[C@]1(NC(=O)[C@@H]1C[C@@H](OC(=O)N2Cc3cccc(F)c3C2)CN1C(=O)C(Nc1cc(C)cc(C)n1)C(C)C)C(=O)NS(=O)(=O)C1CC1` (single isomer, unassigned) [Compound 2A], the concentration for half-maximal inhibition (IC50) in experiment [1] was 4600 nM; in experiment [2] it was above 100000 nM; at human liver cathepsin B it was above 100000 nM; in experiment [4] it was 2100 nM. Besides, the half-maximal effective concentration (EC50) in experiment [3] (Huh-7, HCV replicon, activity range, read-out: EC50 (range or value)) is 14 to 100 nM; in experiment [3] (Huh-7, replicon FRET assay, read-out: EC50 value in the replicon FRET assay) it was 69 nM.

For orientation: IC50 means the concentration that inhibits the measured activity by half. A word on the EC50: it is the concentration giving half of the maximal effect.
